In assay [1] the target is T1, ABL1(Q252H)-nonphosphorylated (Homo sapiens, UniProt P00519, Q252H).
T1 construct: purchased DiscoveRx
The experiment in a line: KinomeScan. It counts as binding. The note with it: read-out: % Control.

In another assay the target is T2, BIKE (Homo sapiens, UniProt Q9NSY1).
T2 construct: purchased DiscoveRx (Fremont, CA)
The assay can be described thus: KinomeScan. The note with it: read-out: % Control. It counts as binding.

Another assay concerns the target DAPK1 (Homo sapiens, UniProt P53355). The assay can be described thus: KinomeScan. The class given is binding. Conditions: read-out: % Control.
The target in another assay is T3, DRAK1 (Homo sapiens, UniProt Q9UEE5).
T3 construct: purchased DiscoveRx (Fremont, CA), KinomeScan service
The assay can be described thus: KinomeScan. Conditions: read-out: % Control. The class given is binding.

Assay [2] has as its target T4, EGFR(L747-E749del, A750P) (Homo sapiens, UniProt P00533, A750P/DEL747-749).
T4 construct: purchased DiscoveRx (Fremont, CA), KinomeScan service
The assay can be described thus: KinomeScan. It counts as binding. The note with it: read-out: % Control.

In a further assay the target is T5, ERK5 (Homo sapiens, UniProt Q13164).
T5 construct: purchased DiscoveRx (Fremont, CA)
The experiment in a line: KinomeScan. It counts as binding. The note with it: read-out: % Control.

Another assay deals with T6, FRK (Homo sapiens, UniProt P42685).
T6 construct: purchased DiscoveRx (Fremont, CA)
The assay can be described thus: KinomeScan. It counts as binding. The note with it: read-out: % Control.

For a further assay, the target named is T7, MYO3A (Homo sapiens, UniProt Q8NEV4).
T7 construct: purchased DiscoveRx
The experiment in a line: KinomeScan. It counts as binding. The note with it: read-out: % Control.

A further assay concerns the target T8, OSR1 (Homo sapiens, UniProt O95747).
T8 construct: purchased DiscoveRx
The assay can be described thus: KinomeScan. The class given is binding. Conditions: read-out: % Control.

For another assay, the target named is T9, PAK2 (Homo sapiens, UniProt Q13177).
T9 construct: purchased DiscoveRx
The experiment in a line: KinomeScan. It counts as binding. The note with it: read-out: % Control.

The target of the next assay is T10, PDPK1 (Homo sapiens, UniProt O15530).
T10 construct: purchased DiscoveRx (Fremont, CA)
The experiment in a line: KinomeScan. It counts as binding. The note with it: read-out: % Control.

Assay [3] addresses T11, RPS6KA5(Kin.Dom.1-N-terminal) (Homo sapiens, UniProt O75582).
T11 construct: RPS6KA5(Kin.Dom.1-N-terminal); purchased DiscoveRx (Fremont, CA)
The assay can be described thus: KinomeScan. The class given is binding. Conditions: read-out: % Control.

For assay [4], the target named is T12, RSK2(Kin.Dom.1-N-terminal) (Homo sapiens, UniProt P51812).
T12 construct: RSK2(Kin.Dom.1-N-terminal); purchased DiscoveRx (Fremont, CA)
The assay can be described thus: KinomeScan. It counts as binding. The note with it: read-out: % Control.

A further assay addresses T13, TAOK1 (Homo sapiens, UniProt Q7L7X3).
T13 construct: purchased DiscoveRx (Fremont, CA)
The assay can be described thus: KinomeScan. The class given is binding. Conditions: read-out: % Control.

For the next assay, the target named is T14, ULK1 (Homo sapiens, UniProt O75385).
T14 construct: purchased DiscoveRx
The assay can be described thus: KinomeScan. Conditions: read-out: % Control. It counts as binding.

The target in a further assay is T15, ADRB1 (Homo sapiens, UniProt P08588).
T15 construct: host or cells: Chem-1 cells with promiscuous Gα15
The assay can be described thus: GPCR Profiler. It counts as cell-based.

The test system of a further assay is U138. The experiment in a line: 2D cell growth/viability. The class given is cell-based, human. As to the method: (§1) GBM neurospheres and low passage PDX models were plated in 96-well plates at 10,000 cells per well in 50 μL of neural stem cell media. The next day, the cells were treated with OGM2 compounds at the indicated concentrations, in triplicates, by adding an equal volume of medium containing 2× the final concentration of compound. Following 72 hours incubation under standard cell culture conditions, relative cell number was assessed using Cell Titer-Glo Luminescent Cell Viability Assay (Promega™) following the manufacturer's instructions. Luminescence was determined using a Cytation 5 reader and Gen5 software package (BioTek™). For U87 and U138 cell lines, one thousand cells were plated per well in a standard 96-well plate and allowed to attach for 24 hours before exposure to concentrations of vehicle, OGM2, or TMZ. Cells were treated for 72 hours and then stained with DAPI. A 10× magnification lens on a LionheartFX (BioTek™) was used to image the wells, and images were stitched together with Gen5 software (BioTek™). Automated nuclei counting was also done using the Gen5 software. Results reported as percent response relative to DMSO control. IC50 (the concentration causing 50% inhibition) was determined by GraphPad Prism™ version 6.07.
(§2) Temozolomide is the standard of care for glioblastoma but only works on 30% of patients. […]

The subject of assay [5] is U87. The assay can be described thus: 2D cell growth/viability. It counts as cell-based, human. Conditions: 72 hours. As to the method:
as §1, §2

A further assay relates to DU145. The assay can be described thus: Liperfluo lipid peroxidation. The class given is cell-based, human. An excerpt: (§3) OGM2 kills prostate cancer cells by inducing ferroptosis (FIG. 100). […] OGM2 induces ferroptosis in DU145 cells (FIG. 100A) and PC3 cells (FIG. 100C) based on Liperfluo™ lipid peroxidation assay. Erastin, a cystine-glutamate antiporter system Xc^− inhibitor, is a positive control ferroptosis inducer.

The next assay has as its system PC3. The assay can be described thus: Liperfluo lipid peroxidation. The class given is cell-based, human.
Excerpt: as §3

A further assay relates to A549. The assay can be described thus: Acid-induced Mucin-5AC production. It counts as cell-based, human. Conditions: pH 6.4 buffered media, 24 hours. As to the method: Lung (A549) cells were plated in 6-well plates. The cells then were rinsed and protein was isolated. Dot blots were made with anti Mucin-5AC antibodies, and an equivalent amount of protein was run on a western blot to detect alpha tubulin. Lung (A549) cells were cultured as above, but in pH 6.4 buffered media with increasing concentrations of OGM2. Mucin5AC and alpha tubulin were detected in the same way.
In addition. A549 cells were cultured in pH 6.4 medium with or without OGM2 for 24 hours cells were then rinsed and then stained with Periodic Acid Staining solution which detects mucins. FIG. 30E is a schematic of cas9 mediated endogenous tagging of MU5AC genetic locus with nano-luciferase in A549 cells. For FIG. 30F, Muc5ac-Luc cells were cultured in pH 6.4 buffered medium with and without OGM2 for 24 hours. Cell lysates were then assayed for luciferase activity and normalized to untreated control. See results in FIG. 30F.

Assay [6] relates to U87. The assay can be described thus: Clonogenicity (crystal violet). The class given is cell-based, human. The note with it: 12 days. As to the method: U87 cells were plated at 400 cells per well in a 6-well plate and on the next day were treated with increasing concentrations of OGM2 for 12 days. The doses were 0 uM (DMSO control) 0.1 μM 0.5 uM, 1 uM, 1.5 uM and 2 uM, as labelled. The plate was fixed with formalin and stained with crystal violet.

Molecules are shown by their SMILES.

T15 sequence (P08588 whole entry, species assumed): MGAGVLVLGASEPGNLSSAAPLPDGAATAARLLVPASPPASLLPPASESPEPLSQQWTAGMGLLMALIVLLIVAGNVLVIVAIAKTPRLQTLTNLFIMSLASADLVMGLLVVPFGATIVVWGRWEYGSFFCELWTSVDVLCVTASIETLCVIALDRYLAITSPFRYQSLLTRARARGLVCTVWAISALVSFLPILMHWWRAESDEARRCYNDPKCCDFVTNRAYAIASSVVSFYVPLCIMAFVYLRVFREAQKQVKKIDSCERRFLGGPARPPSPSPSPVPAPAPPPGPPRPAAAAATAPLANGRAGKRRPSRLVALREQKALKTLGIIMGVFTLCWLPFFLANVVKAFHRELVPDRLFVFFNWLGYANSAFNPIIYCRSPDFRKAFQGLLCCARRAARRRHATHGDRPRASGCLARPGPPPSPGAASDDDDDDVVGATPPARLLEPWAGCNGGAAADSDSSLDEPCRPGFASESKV
T10 sequence (O15530 whole entry): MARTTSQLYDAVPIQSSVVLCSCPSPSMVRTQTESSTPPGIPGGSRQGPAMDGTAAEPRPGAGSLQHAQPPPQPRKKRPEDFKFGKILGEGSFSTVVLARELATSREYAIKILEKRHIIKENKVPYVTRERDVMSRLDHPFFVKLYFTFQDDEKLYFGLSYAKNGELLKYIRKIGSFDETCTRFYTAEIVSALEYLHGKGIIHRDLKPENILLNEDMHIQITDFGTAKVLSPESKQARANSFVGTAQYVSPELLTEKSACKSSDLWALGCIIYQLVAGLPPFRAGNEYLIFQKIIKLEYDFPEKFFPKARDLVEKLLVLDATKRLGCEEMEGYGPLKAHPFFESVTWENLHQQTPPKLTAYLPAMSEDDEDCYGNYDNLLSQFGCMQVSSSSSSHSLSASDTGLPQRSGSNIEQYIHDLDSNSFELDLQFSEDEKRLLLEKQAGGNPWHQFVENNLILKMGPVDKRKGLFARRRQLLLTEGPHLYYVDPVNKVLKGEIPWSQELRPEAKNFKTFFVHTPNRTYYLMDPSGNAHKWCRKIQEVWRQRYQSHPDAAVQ
T3 sequence (Q9UEE5 whole entry): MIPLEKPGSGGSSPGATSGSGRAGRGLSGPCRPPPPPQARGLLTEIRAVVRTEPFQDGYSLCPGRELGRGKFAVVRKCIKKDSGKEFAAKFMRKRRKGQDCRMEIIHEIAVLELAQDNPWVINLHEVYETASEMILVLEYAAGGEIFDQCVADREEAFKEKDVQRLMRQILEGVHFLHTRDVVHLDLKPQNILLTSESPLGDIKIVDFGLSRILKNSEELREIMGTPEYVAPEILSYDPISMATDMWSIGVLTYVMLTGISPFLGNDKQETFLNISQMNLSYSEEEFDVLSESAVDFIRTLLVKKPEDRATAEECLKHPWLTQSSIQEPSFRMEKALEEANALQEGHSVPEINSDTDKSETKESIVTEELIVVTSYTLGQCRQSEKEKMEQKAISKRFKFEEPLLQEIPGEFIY
T8 sequence (O95747 whole entry): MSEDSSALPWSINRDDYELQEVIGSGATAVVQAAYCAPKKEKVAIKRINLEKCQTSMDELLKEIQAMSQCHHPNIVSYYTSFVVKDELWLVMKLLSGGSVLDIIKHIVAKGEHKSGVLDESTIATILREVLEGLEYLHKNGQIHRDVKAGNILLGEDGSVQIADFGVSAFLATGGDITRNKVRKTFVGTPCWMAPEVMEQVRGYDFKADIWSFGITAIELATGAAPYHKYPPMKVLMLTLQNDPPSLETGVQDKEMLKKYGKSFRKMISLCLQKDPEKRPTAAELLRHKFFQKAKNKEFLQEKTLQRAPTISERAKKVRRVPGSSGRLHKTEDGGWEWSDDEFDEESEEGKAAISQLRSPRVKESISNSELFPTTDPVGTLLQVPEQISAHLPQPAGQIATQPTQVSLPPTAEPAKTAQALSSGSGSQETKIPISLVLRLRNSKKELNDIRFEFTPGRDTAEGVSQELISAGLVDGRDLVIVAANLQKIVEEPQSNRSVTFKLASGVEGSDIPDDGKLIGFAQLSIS
T6 sequence (P42685 whole entry): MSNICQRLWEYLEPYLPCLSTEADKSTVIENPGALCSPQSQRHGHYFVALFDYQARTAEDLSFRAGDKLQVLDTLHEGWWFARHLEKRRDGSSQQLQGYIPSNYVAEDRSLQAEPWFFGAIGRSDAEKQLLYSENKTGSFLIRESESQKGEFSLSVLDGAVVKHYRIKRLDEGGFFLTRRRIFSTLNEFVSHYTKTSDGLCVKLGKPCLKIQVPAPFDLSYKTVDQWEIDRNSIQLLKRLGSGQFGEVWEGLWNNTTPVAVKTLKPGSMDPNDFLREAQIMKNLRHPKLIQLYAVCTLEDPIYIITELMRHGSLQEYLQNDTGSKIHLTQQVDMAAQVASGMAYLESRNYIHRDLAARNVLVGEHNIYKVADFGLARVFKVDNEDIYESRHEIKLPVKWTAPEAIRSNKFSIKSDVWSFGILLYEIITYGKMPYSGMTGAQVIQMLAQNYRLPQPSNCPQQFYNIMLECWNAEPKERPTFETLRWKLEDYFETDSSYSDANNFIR
T7 sequence (Q8NEV4 whole entry): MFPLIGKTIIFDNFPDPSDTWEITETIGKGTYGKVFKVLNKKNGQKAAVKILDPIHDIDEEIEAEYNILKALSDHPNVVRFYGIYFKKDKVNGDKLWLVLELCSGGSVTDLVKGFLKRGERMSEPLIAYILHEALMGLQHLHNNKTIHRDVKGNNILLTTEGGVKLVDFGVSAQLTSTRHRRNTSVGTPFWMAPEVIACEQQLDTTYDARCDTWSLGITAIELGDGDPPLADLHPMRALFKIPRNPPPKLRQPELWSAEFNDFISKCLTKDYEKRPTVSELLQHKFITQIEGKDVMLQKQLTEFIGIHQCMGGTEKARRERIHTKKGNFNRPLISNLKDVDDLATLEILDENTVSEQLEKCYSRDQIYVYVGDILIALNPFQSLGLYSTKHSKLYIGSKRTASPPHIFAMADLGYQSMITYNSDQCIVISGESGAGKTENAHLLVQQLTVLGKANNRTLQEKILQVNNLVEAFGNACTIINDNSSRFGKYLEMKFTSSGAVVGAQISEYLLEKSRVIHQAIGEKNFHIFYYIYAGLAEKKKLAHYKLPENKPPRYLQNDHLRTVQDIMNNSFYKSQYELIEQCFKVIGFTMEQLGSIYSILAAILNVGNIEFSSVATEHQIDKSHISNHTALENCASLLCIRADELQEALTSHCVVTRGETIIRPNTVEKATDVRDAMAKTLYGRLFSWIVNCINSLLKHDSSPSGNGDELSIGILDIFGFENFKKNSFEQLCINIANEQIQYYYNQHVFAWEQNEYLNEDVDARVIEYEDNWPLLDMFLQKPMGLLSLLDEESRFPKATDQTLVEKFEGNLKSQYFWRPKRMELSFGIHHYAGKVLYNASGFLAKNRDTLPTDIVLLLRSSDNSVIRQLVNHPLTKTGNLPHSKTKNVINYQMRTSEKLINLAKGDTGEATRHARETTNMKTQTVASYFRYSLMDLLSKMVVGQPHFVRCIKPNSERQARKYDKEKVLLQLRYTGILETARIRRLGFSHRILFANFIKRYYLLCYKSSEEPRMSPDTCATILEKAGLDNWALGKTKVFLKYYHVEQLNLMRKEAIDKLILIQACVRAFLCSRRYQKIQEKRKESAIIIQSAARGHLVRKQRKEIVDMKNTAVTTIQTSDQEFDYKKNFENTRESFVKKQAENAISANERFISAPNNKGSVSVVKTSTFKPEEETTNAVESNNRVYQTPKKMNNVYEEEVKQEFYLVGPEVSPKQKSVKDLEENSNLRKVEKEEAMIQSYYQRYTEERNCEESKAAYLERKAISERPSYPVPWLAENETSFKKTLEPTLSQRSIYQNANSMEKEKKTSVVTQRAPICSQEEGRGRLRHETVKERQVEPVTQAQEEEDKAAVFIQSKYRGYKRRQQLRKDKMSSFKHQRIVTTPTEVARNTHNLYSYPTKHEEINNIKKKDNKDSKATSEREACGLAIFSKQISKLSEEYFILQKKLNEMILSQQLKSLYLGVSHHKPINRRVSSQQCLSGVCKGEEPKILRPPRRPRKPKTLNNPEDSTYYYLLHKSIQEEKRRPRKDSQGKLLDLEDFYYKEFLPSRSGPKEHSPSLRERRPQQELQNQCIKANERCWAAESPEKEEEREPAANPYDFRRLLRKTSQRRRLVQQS
T12 sequence (P51812 68-327 limits assumed): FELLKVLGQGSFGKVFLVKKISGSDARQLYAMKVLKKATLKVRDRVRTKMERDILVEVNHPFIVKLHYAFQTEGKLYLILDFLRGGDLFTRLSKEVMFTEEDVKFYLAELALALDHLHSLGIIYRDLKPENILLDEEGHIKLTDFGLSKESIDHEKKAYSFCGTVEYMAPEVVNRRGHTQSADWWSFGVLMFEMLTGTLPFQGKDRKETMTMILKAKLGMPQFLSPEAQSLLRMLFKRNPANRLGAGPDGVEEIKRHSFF
T11 sequence (O75582 49-318 limits assumed): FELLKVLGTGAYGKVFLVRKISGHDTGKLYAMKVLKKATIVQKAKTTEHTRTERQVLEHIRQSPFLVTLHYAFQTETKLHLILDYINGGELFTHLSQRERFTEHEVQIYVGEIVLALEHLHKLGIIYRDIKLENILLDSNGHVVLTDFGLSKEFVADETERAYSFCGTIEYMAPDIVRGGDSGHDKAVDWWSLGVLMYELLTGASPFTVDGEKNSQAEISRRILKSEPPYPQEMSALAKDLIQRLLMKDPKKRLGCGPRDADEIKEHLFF

Turning to `CCc1ccc2c(c1)C1(NN=C(c3cccc4ccccc34)S1)C(=O)N2` (centres unmarked) [OGM1, 5-ethyl-5′-naphthalen-1-ylspiro[1H-indole-3,2′-3H-1,3,4-thiadiazole]-2-one], the remaining binding at 10 µM is 84% in [1]; 88% at BIKE; 90% at DAPK1; 100% at DRAK1; 91% in assay [2]; 89% on ERK5. In addition, the remaining binding at 10 µM is 100% on FRK; 95% on MYO3A; 92% at OSR1; 72% at PAK2; 100% on PDPK1; 100% in assay [3]. The remaining binding at 10 µM in assay [4] was 95%; on TAOK1, 83%; at ULK1 it was 100%. For the same molecule, the Antagonism at ADRB1 (10 uM) was −9.6. At ADRB1 (12.5 uM), this molecule had an Agonism of −1.3.

Take `CCc1ccc2c(c1)C1(NN=C(c3ccccc3)S1)C(=O)N2` (centres unmarked) [OGM2]: the “cell growth in 2D culture” value with U138 is “caused dose-dependent inhibition of U138 cell growth”. Moreover, in the assay on U87 [5], the “cell growth, comparison with Temozolomide” value is given as “more potent inhibitor of U87 cell growth in 2D cell assay than Temozolomide”. For the same molecule, the lipid peroxidation entry with DU145 and in the assay on PC3 was “significantly increased lipid peroxidation” in each case. For the same molecule, the Mucin production result in the assay on A549 is recorded as “inhibits Mucin production”. The clonogenicity entry in the assay with U87 [6] is recorded as “reduces clonogenicity of U87 glioblastoma cells”.

The values above are taken from patent US20240327364A1, “THERAPEUTIC TARGETING OF GPR68 TO INDUCE FERROPTOSIS” (University Of Maryland, Baltimore, priority 2023, published 2024).
